This data set deals with mouse popliteal lymph nodes. The data set can be described thus: Evaluation of accumulation in SLN. In kind it is in vivo. On the procedure: Migration to SLN was evaluated using mouse popliteal lymph nodes. A probe was administered to a mouse from the sole of the hindlimb, and accumulation in the popliteal lymph nodes was evaluated as a model of evaluation of accumulation in SLN. Ten microliters of a sample was subcutaneously administered to a mouse from the sole of the hindlimb, and after 24 hours, mouse popliteal lymph nodes were harvested. The harvested mouse popliteal lymph nodes were crushed, and the absorbance of the extract from the crushed lymph nodes was measured. The accumulation rate was calculated based on the following expression:
Accumulation rate=[(absorbance of the extracted mouse popliteal lymph nodes)/(absorbance of the sample in an amount equivalent to the administered amount)]×100.
The accumulation ratios, to SLN, of the photoacoustic imaging contrast agents prepared in Examples B1 to B6 and reagents prepared in Comparative Examples B1 and B2 were calculated according to the above-described evaluation examples for accumulation in SLN. In Table B1, the accumulation ratio means an accumulation rate of each photoacoustic imaging contrast agent or the ICG-albumin complex when the accumulation rate of the ICG aqueous solution used in Comparative Example B1 is assumed as 1.

The structures appear in SMILES notation.

As to `CC1(C)C(/C=C/C=C/C=C/C=C2/N(CCCCS(=O)(=O)[O-])c3ccc4ccccc4c3C2(C)C)=[N+](CCCCS(=O)(=O)[O-])c2ccc3ccccc3c21.[Na+]` [ICG, indocyanine green], where the note is “accumulation rate relative to ICG aqueous solution = 1, 10 μL subcutaneous, sole of hindlimb, 24 hours, absorbance at 790 or 800 nm”, the Accumulation ratio came to 1. Also, the “Accumulation in SLN (in words)” value (mouse, in vivo) was “low”.
